This note sets out measurements from PubChem BioAssay (NCI).

Test systems include 786-0 renal; CCRF-CEM leukemia; DU-145 prostate; HT29 colon; MDA-MB-435; MOLT-4 leukemia; OVCAR-3 ovarian; RXF 393 renal; SNB-19 CNS; TK-10 renal.
Test in all cases: NCI-60 cell line screen, 48 h

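Cells were grown in 96-well plates and exposed to each compound for 48 hours at five concentrations; endpoints were interpolated linearly between bracketing concentrations, or set to the highest concentration if not reached. GI50 marks 50% less growth. TGI denotes the concentration required for complete inhibition of growth.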

Consider `S=C1NC(c2ccccc2)NC(c2ccccc2)S1` (stereo not given), for which the TGI in the assay with 786-0 renal is more than 100 µM; in the assay with CCRF-CEM leukemia, 8.38 µM; with DU-145 prostate it was more than 100 µM; with HT29 colon it was more than 100 µM; in the assay on MDA-MB-435, more than 100 µM; with MOLT-4 leukemia, more than 100 µM. Further, the TGI in the assay with OVCAR-3 ovarian, in the assay on RXF 393 renal, in the assay with SNB-19 CNS and in the assay on TK-10 renal was more than 100 µM throughout.

`COc1ccc(CC2OC3(CCCCC3)CC3CCCCN32)cc1` (stereo not given): the TGI with 786-0 renal, with CCRF-CEM leukemia, in the assay on DU-145 prostate, with HT29 colon, in the assay with MDA-MB-435 and in the assay on MOLT-4 leukemia was more than 100 µM in each case. Besides, the TGI in the assay with OVCAR-3 ovarian, in the assay on RXF 393 renal, with SNB-19 CNS and in the assay with TK-10 renal was more than 100 µM each time.

Take `COc1ccc(COc2ccc(Cc3cnc(N)nc3N)cc2OC)cc1`: the GI50 in the assay on 786-0 renal was more than 25 µM; with CCRF-CEM leukemia it was more than 25 µM; with DU-145 prostate it was more than 25 µM; in the assay on HT29 colon, 11.7 µM; with MDA-MB-435, more than 25 µM; in the assay on MOLT-4 leukemia it was more than 25 µM. The GI50 in the assay with OVCAR-3 ovarian is more than 19.4 µM; with RXF 393 renal, 8.21 µM; in the assay with SNB-19 CNS it was more than 25 µM; with TK-10 renal, more than 25 µM. The TGI in the assay with 786-0 renal, with CCRF-CEM leukemia, in the assay on DU-145 prostate, in the assay on HT29 colon, in the assay with MDA-MB-435 and with MOLT-4 leukemia was more than 25 µM each time. The TGI in the assay with OVCAR-3 ovarian, in the assay with RXF 393 renal, with SNB-19 CNS and in the assay on TK-10 renal was more than 25 µM throughout.

For the compound `COc1cc2cc(C(=O)Nc3ccccc3)c(N)nc2cc1OC`, the GI50 with 786-0 renal is 31.7 µM; in the assay on CCRF-CEM leukemia, 35.9 µM; with DU-145 prostate it was 80.3 µM; in the assay on HT29 colon, 51.5 µM; in the assay with MDA-MB-435, 48.7 µM; in the assay on MOLT-4 leukemia, 38.5 µM. Moreover, the GI50 in the assay on OVCAR-3 ovarian is 50.9 µM; with RXF 393 renal, 23.7 µM; in the assay with SNB-19 CNS, more than 100 µM; in the assay on TK-10 renal, 63.5 µM. Besides, the TGI with 786-0 renal, with CCRF-CEM leukemia, with DU-145 prostate, in the assay on HT29 colon, in the assay on MDA-MB-435 and with MOLT-4 leukemia was more than 100 µM throughout. For the same compound, the TGI in the assay on OVCAR-3 ovarian, with RXF 393 renal, in the assay with SNB-19 CNS and in the assay with TK-10 renal was more than 100 µM in each case.

`Cc1ccc(O)c(C(=O)/C=C/c2ccccc2)c1`: the TGI with 786-0 renal, in the assay on CCRF-CEM leukemia, in the assay on DU-145 prostate, in the assay with HT29 colon, in the assay on MDA-MB-435 and in the assay on MOLT-4 leukemia was more than 100 µM throughout. Besides, the TGI in the assay with OVCAR-3 ovarian, in the assay with RXF 393 renal, in the assay with SNB-19 CNS and in the assay with TK-10 renal was more than 100 µM in each case.

In the case of `C=C1CC2(CC(c3ccccc3C)OC(c3ccccc3C)C2)OC1=O` (stereo not given), the TGI with 786-0 renal came to 4.74 µM; in the assay with CCRF-CEM leukemia, 5.75 µM; in the assay with DU-145 prostate, 24.6 µM; in the assay on HT29 colon, 3.53 µM; in the assay with MDA-MB-435 it was 3.13 µM; in the assay on MOLT-4 leukemia it was 21.4 µM. For the same compound, the TGI was found to be 3.58 µM in the assay with OVCAR-3 ovarian, 3.88 µM with RXF 393 renal, 30.8 µM with SNB-19 CNS and 4.14 µM with TK-10 renal.

As for `CN1c2cccc[c]2[Sn]([CH3])([CH3])[c]2ccccc21`, the GI50 in the assay with 786-0 renal was less than 0.014 µM; with CCRF-CEM leukemia, less than 0.01 µM; in the assay with DU-145 prostate it was less than 0.0131 µM; with HT29 colon, less than 0.012 µM; in the assay on MDA-MB-435 it was less than 0.01 µM; with MOLT-4 leukemia, 0.0101 µM. The GI50 is less than 0.0115 µM with OVCAR-3 ovarian, 0.0279 µM in the assay on RXF 393 renal, 0.0212 µM in the assay on SNB-19 CNS and less than 0.0192 µM in the assay with TK-10 renal. For the same compound, the TGI with 786-0 renal was 0.124 µM; with CCRF-CEM leukemia, 0.119 µM; in the assay on DU-145 prostate, 0.0988 µM; in the assay with HT29 colon it was less than 0.0249 µM; in the assay on MDA-MB-435, 0.0291 µM; in the assay on MOLT-4 leukemia it was 0.936 µM. The TGI with OVCAR-3 ovarian is less than 0.0224 µM; in the assay on RXF 393 renal, 0.202 µM; in the assay with SNB-19 CNS it was 0.215 µM; in the assay with TK-10 renal, 0.135 µM.

Turning to `O=C1NC(=O)/C(=C/c2ccc3nccc(-c4ccncc4)c3c2)S1`, the GI50 was 0.345 µM in the assay with 786-0 renal; 0.495 µM with CCRF-CEM leukemia; 0.431 µM in the assay on DU-145 prostate; 0.423 µM with HT29 colon; 0.402 µM with MDA-MB-435; 0.645 µM in the assay on MOLT-4 leukemia. Moreover, the GI50 in the assay on OVCAR-3 ovarian was 0.252 µM; in the assay on RXF 393 renal it was 0.251 µM; with SNB-19 CNS, 0.429 µM; with TK-10 renal it was 0.197 µM. For the same compound, the TGI in the assay with 786-0 renal is 3.15 µM; with CCRF-CEM leukemia, more than 10 µM; with DU-145 prostate it was more than 5.79 µM; in the assay with HT29 colon, 6.29 µM; with MDA-MB-435 it was more than 7.25 µM; in the assay on MOLT-4 leukemia, 9.91 µM. Moreover, the TGI came out at 2.07 µM in the assay on OVCAR-3 ovarian, 1.3 µM in the assay with RXF 393 renal, 5.93 µM in the assay on SNB-19 CNS and 1.24 µM with TK-10 renal.

On to `c1ccc(OCC[P+](c2ccccc2)(c2ccccc2)c2ccccc2)cc1`, for which the GI50 in the assay on 786-0 renal is 5.15 µM; with CCRF-CEM leukemia it was 0.981 µM; with DU-145 prostate, 2.11 µM; in the assay with HT29 colon, 0.308 µM; in the assay on MDA-MB-435, 0.433 µM; with MOLT-4 leukemia, 3.89 µM. For the same compound, the GI50 in the assay on OVCAR-3 ovarian was 1.11 µM; in the assay with RXF 393 renal, 4.19 µM; in the assay on SNB-19 CNS, 1.39 µM; with TK-10 renal it was 1.73 µM. Also, the TGI is 20.8 µM in the assay with 786-0 renal; more than 41.4 µM with CCRF-CEM leukemia; 22.8 µM in the assay with DU-145 prostate; 10.9 µM with HT29 colon; 4.31 µM with MDA-MB-435; 27.2 µM in the assay on MOLT-4 leukemia. Also, the TGI in the assay on OVCAR-3 ovarian is 7.69 µM; with RXF 393 renal, 16 µM; in the assay with SNB-19 CNS, 15.1 µM; in the assay with TK-10 renal, 14.5 µM.
